Results as given in PubChem BioAssay AID1845199 (Molecular Pharmacology Branch, DTP, NCI, 2023).
pIC50: −log10 of the molar value.

System: 556581-035-R-J1 tumor spheroid viability, % test/control
Assay: Anticancer human tumor 556581-035-R-J1 patient-derived ovarian carcinoma cell line growth inhibition
Conditions: spheroids with HUVEC and MSC; for pIC50: curve of first compound; for viability, T/C: stronger effect = lower value
Summary of the method: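 Complex tumor spheroids combined malignant cells with endothelial cells and mesenchymal stem cells. DNA-damaging drugs and DNA repair inhibitors were tested alone and in combination, at half-log dilutions down from clinical Cmax (top 10 microM if Cmax unknown), 0.25% DMSO final.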

[1] = second compound 0.003 µM, first compound 0.0316 µM
[2] = second compound 0.003 µM, first compound 0.1 µM
[3] = second compound 0.003 µM, first compound 0.316 µM
[4] = second compound 0.003 µM, first compound 1 µM
[5] = second compound 0.003 µM, first compound 3.16 µM
[6] = second compound 0.003 µM, first compound 10 µM
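Further: spheroids exposed to compounds for 7 days before viability read.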

CC(C)n1c(=O)n(C)c2cnc3cc(F)c(-c4ccc(OCCCN5CCCCC5)nc4)cc3c21 + COc1cc2c(cc1O)CCNC21CSC2c3c(OC(C)=O)c(C)c4c(c3C(COC1=O)N1C(O)C3Cc5cc(C)c(OC)c(O)c5C(C21)N3C)OCO4
pIC50 (second compound 30 pM): < 5.00 | pIC50 (second compound 94.9 pM): < 5.00 | pIC50 (second compound 0.0003 µM): < 5.00 | pIC50 (second compound 0.000949 µM): > 7.50 | pIC50 (second compound 0.003 µM): > 7.50 | viability, T/C (second compound 30 pM, first compound 0.0316 µM): 86.3% | viability, T/C (second compound 30 pM, first compound 0.1 µM): 97.8% | viability, T/C (second compound 30 pM, first compound 0.316 µM): 96.5% | viability, T/C (second compound 30 pM, first compound 1 µM): 91% | viability, T/C (second compound 30 pM, first compound 3.16 µM): 89.2% | viability, T/C (second compound 30 pM, first compound 10 µM): 73.7% | viability, T/C (second compound 94.9 pM, first compound 0.0316 µM): 94.9% | viability, T/C (second compound 94.9 pM, first compound 0.1 µM): 98% | viability, T/C (second compound 94.9 pM, first compound 0.316 µM): 95.6% | viability, T/C (second compound 94.9 pM, first compound 1 µM): 95.6% | viability, T/C (second compound 94.9 pM, first compound 3.16 µM): 86% | viability, T/C (second compound 94.9 pM, first compound 10 µM): 66.6% | viability, T/C (second compound 0.0003 µM, first compound 0.0316 µM): 96.1% | viability, T/C (second compound 0.0003 µM, first compound 0.1 µM): 96.8% | viability, T/C (second compound 0.0003 µM, first compound 0.316 µM): 98.8% | viability, T/C (second compound 0.0003 µM, first compound 1 µM): 97.7% | viability, T/C (second compound 0.0003 µM, first compound 3.16 µM): 84.4% | viability, T/C (second compound 0.0003 µM, first compound 10 µM): 62.3% | viability, T/C (second compound 0.000949 µM, first compound 0.0316 µM): 44.8% | viability, T/C (second compound 0.000949 µM, first compound 0.1 µM): 35% | viability, T/C (second compound 0.000949 µM, first compound 0.316 µM): 37.1% | viability, T/C (second compound 0.000949 µM, first compound 1 µM): 48.5% | viability, T/C (second compound 0.000949 µM, first compound 3.16 µM): 39.1% | viability, T/C (second compound 0.000949 µM, first compound 10 µM): 17.6% | viability, T/C [1]: 0.76% | viability, T/C [2]: 1.38% | viability, T/C [3]: 0.61% | viability, T/C [4]: 0.59% | viability, T/C [5]: 0.42% | viability, T/C [6]: 0.65%

[2H]c1nc(C)nc([2H])c1-c1cc(NC[C@@H](C)c2cccc3c(C(=O)NC)ccnc23)ncn1 + CC[C@@]1(O)C(=O)OCc2c1cc1n(c2=O)Cc2cc3c(CN(C)C)c(O)ccc3nc2-1
pIC50 (second compound 0.003 µM): < 5.00 | pIC50 (second compound 0.00949 µM): < 5.00 | pIC50 (second compound 0.03 µM): < 5.00 | pIC50 (second compound 0.0949 µM): 5.24 | pIC50 (second compound 0.3 µM): > 7.50 | viability, T/C [1]: 101% | viability, T/C [2]: 104% | viability, T/C [3]: 101% | viability, T/C [4]: 104% | viability, T/C [5]: 102% | viability, T/C [6]: 101% | viability, T/C (second compound 0.00949 µM, first compound 0.0316 µM): 94.9% | viability, T/C (second compound 0.00949 µM, first compound 0.1 µM): 101% | viability, T/C (second compound 0.00949 µM, first compound 0.316 µM): 95.7% | viability, T/C (second compound 0.00949 µM, first compound 1 µM): 89.8% | viability, T/C (second compound 0.00949 µM, first compound 3.16 µM): 93.7% | viability, T/C (second compound 0.00949 µM, first compound 10 µM): 93.1% | viability, T/C (second compound 0.03 µM, first compound 0.0316 µM): 78.7% | viability, T/C (second compound 0.03 µM, first compound 0.1 µM): 75.7% | viability, T/C (second compound 0.03 µM, first compound 0.316 µM): 72.4% | viability, T/C (second compound 0.03 µM, first compound 1 µM): 74.5% | viability, T/C (second compound 0.03 µM, first compound 3.16 µM): 78.3% | viability, T/C (second compound 0.03 µM, first compound 10 µM): 79% | viability, T/C (second compound 0.0949 µM, first compound 0.0316 µM): 54.6% | viability, T/C (second compound 0.0949 µM, first compound 0.1 µM): 56% | viability, T/C (second compound 0.0949 µM, first compound 0.316 µM): 55.6% | viability, T/C (second compound 0.0949 µM, first compound 1 µM): 52.6% | viability, T/C (second compound 0.0949 µM, first compound 3.16 µM): 50.7% | viability, T/C (second compound 0.0949 µM, first compound 10 µM): 49% | viability, T/C (second compound 0.3 µM, first compound 0.0316 µM): 13.8% | viability, T/C (second compound 0.3 µM, first compound 0.1 µM): 13.9% | viability, T/C (second compound 0.3 µM, first compound 0.316 µM): 11.5% | viability, T/C (second compound 0.3 µM, first compound 1 µM): 9.66% | viability, T/C (second compound 0.3 µM, first compound 3.16 µM): 12.9% | viability, T/C (second compound 0.3 µM, first compound 10 µM): 8.88%
